Patent US20250387369A1 (priority 2022, published 2025)
pIC50: −log10 of the molar value.

How the values were obtained:
[1] = system: type A influenza virus (H1N1 subtype); test: microbe, parasite or virus in culture; type: cell-based; conditions: H1N1, Calu-3, 48 h
[2] = system: Ebola virus-derived trVLP; test: microbe, parasite or virus in culture; type: cell-based; conditions: Zaire ebolavirus, Huh-7, 48 h

SMILES	pIC50 [1]	pIC50 [2]
NC(=O)c1nc(F)c[nH]c1=O [Favipiravir]	5.02	
CCC(CC)COC(=O)[C@H](C)N[P@](=O)(OC[C@H]1O[C@@](C#N)(c2ccc3c(N)ncnn23)[C@H](O)[C@@H]1O)Oc1ccccc1 [Remdesivir]		7.00
